Test results: patent US20050054103A1, “Expansion of renewable stem cell populations using modulators of PI 3-kinase” (priority 2003, published 2005)

Legend:
CD34+ cells = test: Ex-vivo expansion of CD34+ cell enriched cultures with RAR antagonist, cell counts and FACS surface antigen analysis; assay type: cell-based, human; conditions: for No. of cells (× 10^4): 2 weeks after seeding; for No. of CD34+ cells: RAR antagonist 10^−5 M for one week only
Protocol: Human blood cells were obtained from umbilical cord blood from female patients following full-term, normal delivery (informed consent was obtained). Samples were collected and processed within 12 hours postpartum. Blood was mixed with 3% Gelatin (Sigma, St. Louis, Mo.), sedimented for 30 minutes to remove most red blood cells. […] The mononuclear cell fraction in the interface layer was collected, washed three times and resuspended in phosphate-buffered saline (PBS) solution (Biological Industries) containing 0.5% bovine serum albumin (BSA, Fraction V; Sigma).
To purify CD34^+ mononuclear cells, the fraction was subjected to two cycles of immuno-magnetic separation using the MiniMACS® or Clinimax® CD34 Progenitor Cell Isolation Kit (Miltenyi Biotec, Auburn, Calif.) as per manufacturer's recommendations.
CD34^+ expressing purified cells above were cultured in 24-well Costar Cell Culture Clusters (Coming Inc., Corning, N.Y.) or culture bags (American Fluoroseal Corp), at a concentration of 10^4 cells/ml in alpha medium (Biological Industries, Beit Haemek, Israel) supplemented with 10% fetal bovine serum (FBS, Biological Industries). The following human recombinant cytokines were added: Thrombopoietin (TPO), interleukin-6 (IL-6), FLT-3 ligand and stem cell factor (SCF), all at final concentrations of 50 ng/ml each, though occasionally IL-3, at a concentration of 20 ng/ml, was added either together or instead of SCF. For non-hematopoietic cell differentiation, FGF, EGF, NGF, VEGF, LIF or Hepatocyte growth factor (HGF) were used to supplement the growth medium, either alone or in various combinations. All cytokines used were purchased from Perpo Tech, Inc. (Rocky Hill, N.J.). The cultures were incubated at 37° C., 5% CO2, in a humidified atmosphere.
At weekly intervals, cell cultures were toped and semi-depopulated and were supplemented with fresh medium, serum and cytokines or supplemented with fresh growth medium, alone. At predetermined time points, cells were harvested, stained with trypan blue, counted, and cell morphology was determined via the use of cytospin (Shandon, UK)-prepared smears stained with May-Grunwald/Giemsa solutions.
CD34^+ purified and whole MNC cultures were prepared and maintained as described above. […] The antagonist was added for a predetermined, limited period, for up to three weeks or continuously during the entire culture period.
Cells were harvested, washed with a PBS solution containing 1% bovine sera albumin (BSA) and 0.1% sodium azide (Sigma), and stained at 4° C. for 60 minutes with fluorescein isothiocyanate or phycoerythrin-conjugated antibodies (all from Immunoquality Products, the Netherlands). The cells were then washed with the same buffer and analyzed by FACS caliber or Facstarplus flow cytometers. Cells were passed at a rate of 1000 cells/second, using saline as the sheath fluid. A 488 nm argon laser beam served as the light source for excitation. Emission of ten thousand cells was measured using logarithmic amplification, and analyzed using CellQuest software. Negative control staining of cells was accomplished with mouse IgG-PE (Dako A/S Glostrup, Denmark) and mouse IgG-FITC (BD Biosciences, Erembodegem, Belgium).
CD34 surface expression on short and long-term cultures initiated either with purified CD34^+ cells or the entire MNC fraction was determined as follows: CD34^+ cells were positively reselected (Miltenyi kit) and counted. Purity was confirmed by subsequent FACS and cell morphology analysis.
Reselected CD34^+ cell subsets were stained for the following combination of antigens: CD34PE/CD38FITC and CD34PE/38, 33, 14, 15, 3, 4, 61, 19 (Lin) FITC. The fraction positive for CD34 and negative for CD38 was defined as CD34^+CD38^−. The fraction positive for CD34 and negative for LIN was defined as CD34^+Lin^− cell fraction.
FACS analysis results are given as percentage values of cells. Absolute numbers of subsets are calculated from the absolute number of CD34^+ cells.

[1] = test system: Mouse erythroleukemic cells (MEL); test: HMBA-induced differentiation of erythroleukemic cells; assay type: cell-based; conditions: day 3
Protocol: Mouse erythroleukemic cells (MEL): MEL cells are erythroblast like cells. Following treatment with several chemicals (differentiation inducers) the cells undergo erythroid differentiation and accumulate hemoglobin. […] At day 3 of the culture, the total number of cells and the percentage of hemoglobin-containing cells were determined (Table 7).
On day 3, total cell number and hemoglobin containing (benzidine positive) cells were determined.

[2] = test system: Normal human erythroid cells; test: Human erythroid two-phase liquid culture; assay type: cell-based; conditions: TEPA 10 μM in second phase, after 14 days
Protocol: Peripheral blood mononuclear cells, obtained from an adult normal donor, were cultured in the erythroid two-phase liquid culture system (23-25). The second phase of the culture was supplemented either without or with 10 μM of TEPA. Cultures were analyze for total cells and hemoglobin-containing [benzidine positive (B^+)] cells after 14 days.
Human erythroid cell cultures: Normal human erythroid cells were grown according to the two-phase liquid culture procedure, essentially as described in references 67-70. In the first phase, peripheral blood mononuclear cells were incubated in the presence of early growth factors for 5-7 days. In the second phase, these factors were replaced by the erythroid specific proliferation/differentiation factor, erythropoietin.
The cultures were supplemented with TEPA at the initiation of the second phase. The total cell number and the percentage of hemoglobin-containing cells were determined after 14 days.

[3] = test system: Boston fern Callus tissue cultures; test: Intracellular copper content of plant callus tissues incubated with TEPA; assay type: cell-based; conditions: two days
Protocol: Plant cells: The effect of TEPA on the intracellular copper content of plant cells was determined as follows. Boston fern Callus tissue cultures were obtained from a commercial plant tissue culture production facility (Biological Industries, Kibbutz Bet Ha'Emek, Israel) and incubated with different concentrations of TEPA in the culture medium for two days at room temperature. After three washes with PBS the tissues were suspended in 0.03 M ultra pure nitric acid and homogenized with a high shear mixer (polytron, Kinematica, Switzerland) for 3 minutes to disrupt the cells and release intracellular copper. Cell samples were vortexed before transferring to a vial autosampler and analyzed in duplicate by a Perkin Elmer graphite furnace atomic absorption spectrophotometer at a wavelength of 324.7 nm. The samples were analyzed against copper standard solution prepared from a commercial stock solution that was diluted with 0.03 M ultra pure nitric acid.

[4] = RAR antagonist 10^−5 M, 2 weeks
[5] = RAR antagonist 10^−6 M, 2 weeks
[6] = reselected CD34+ cells after two weeks in culture

CCc1ccc(C2=CC(C)(C)Sc3ccc(C#Cc4ccc(C(=O)O)cc4)cc32)cc1 [AGN 194310]
cell proliferation enabled until (post initial seeding) (CD34+ cells; AGN194310 10^−7 M): ≤ 11 weeks
expression of the CD38 antigen (CD34+ cells; FACS, 2 weeks): completely abolished
No. of cells (× 10^4) (CD34+ cells; RAR antagonist 10^−5 M + 4 cytokines): 42 × 10^4
No. of CD34+ cells (CD34+ cells; week 13): 10322
No. of CD34+ cells (CD34+ cells; week 20): 0
% 34^+/38^−cells (CD34+ cells; [4]): 17.14%
% 34^+/Lin^−cells (CD34+ cells; [4]): 15.18%
% 34^+cells (CD34+ cells; [4]): 18.94%
No. of cells (× 10^4) (CD34+ cells; RAR antagonist 10^−6 M + 4 cytokines): 52 × 10^4
% 34^+/38^−cells (CD34+ cells; [5]): 17.16%
% 34^+/Lin^−cells (CD34+ cells; [5]): 11.91%
% 34^+cells (CD34+ cells; [5]): 19.59%
increase in CD34+ expression between week three to eleven (CD34+ cells; RAR antagonist first three weeks only, then eight weeks without): 92 fold
CD34^+Lin^− expansion (CD34+ cells; after two weeks in culture, CD34+ re-selected fraction): 530 fold
increase in CD34^+CD38^− surface expression (CD34+ cells; [6]): 1000 fold
increase in CD34^+Lin^− surface expression (CD34+ cells; [6]): 500 fold
expansion of CD34+ compartment since the initiation of the cultures (CD34+ cells; week 11, RAR antagonist first three weeks only): 1621 fold
increase in CD34^+Lin^− expression (CD34+ cells; week eleven, 9 weeks after termination of antagonist treatment): 16,700 fold

NCCNCCNCCNCCN [TEPA, tetraethylenepentamine]
Benzidine Positive Cells (%) ([1]; HMBA + chelator 5 μM): 24%
Cells/ml (×10^4) ([1]; HMBA + chelator 5 μM): 35 ×10^4
Benzidine Positive Cells (%) ([1]; HMBA + chelator 10 μM): 16%
Cells/ml (×10^4) ([1]; HMBA + chelator 10 μM): 35 ×10^4
Benzidine Positive Cells (%) ([1]; HMBA + chelator 20 μM): 16%
Cells/ml (×10^4) ([1]; HMBA + chelator 20 μM): 47 ×10^4
hemoglobin-containing cells [2]: sharp decrease
total number of cells [2]: decreased only slightly
Average Intracellular Copper Content (ppb) ([3]; TEPA 10 μM in medium): 13.85 +/− 4.09 ppb
Average Intracellular Copper Content (ppb) ([3]; TEPA 50 μM in medium): 8.45 +/− 0.05 ppb
Average Intracellular Copper Content (ppb) ([3]; TEPA 100 μM in medium): 7.1 +/− 2.12 ppb
